ChEMBL document CHEMBL5036328, “Nonpeptidic, Polo-Box Domain-Targeted Inhibitors of PLK1 Block Kinase Activity, Induce Its Degradation and Target-Resistant Cells” (J Med Chem, 2021)
pEC50, pIC50: −log10 of the molar value. Activity calls are given as the source filed them. The calls are words filed in the database; no cut-off is given here.

Tests used:
[1] = molecular target: T1, Serine/threonine-protein kinase PLK1 (Homo sapiens, UniProt P53350); test: Binding affinity to […] (unknown origin) using MAGPMQS[pT]PLNGAKK tracer peptide as substrate by fluorescence polarization binding assay
T1 sequence (P53350 whole entry): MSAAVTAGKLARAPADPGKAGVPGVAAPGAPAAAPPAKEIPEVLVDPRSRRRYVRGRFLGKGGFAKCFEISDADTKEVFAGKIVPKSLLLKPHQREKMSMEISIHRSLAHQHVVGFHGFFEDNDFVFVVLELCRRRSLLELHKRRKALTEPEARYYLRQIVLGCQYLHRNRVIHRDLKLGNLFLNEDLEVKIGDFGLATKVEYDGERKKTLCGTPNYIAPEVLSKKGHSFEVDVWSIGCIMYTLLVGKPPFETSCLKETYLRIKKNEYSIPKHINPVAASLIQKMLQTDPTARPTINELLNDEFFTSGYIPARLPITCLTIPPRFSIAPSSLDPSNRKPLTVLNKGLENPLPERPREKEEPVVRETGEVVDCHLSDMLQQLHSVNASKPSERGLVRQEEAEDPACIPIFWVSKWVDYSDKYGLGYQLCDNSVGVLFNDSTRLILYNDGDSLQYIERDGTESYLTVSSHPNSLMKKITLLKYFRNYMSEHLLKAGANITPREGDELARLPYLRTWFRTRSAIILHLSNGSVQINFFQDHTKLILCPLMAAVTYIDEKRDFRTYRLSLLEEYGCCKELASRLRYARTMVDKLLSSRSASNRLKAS

PC-3 [2] = test: Antiproliferative activity against human PC-3 cells assessed as reduction in cell viability incubated for 72 hrs by MTT assay; type: functional, cell-based; settings: PC-3, 72 h
HeLa = test: Antiproliferative activity against human HeLa cells assessed as reduction in cell viability incubated for 72 hrs by MTT assay; type: functional, cell-based
HRPE [3] = test: Antiproliferative activity against human RPE cells expressing wild-type PLK1 assessed as reduction in cell viability after 72 hrs by MTT assay; type: functional, cell-based
HRPE [4] = test: Antiproliferative activity against human RPE cells expressing C67V mutant PLK1 assessed as reduction in cell viability after 72 hrs by MTT assay; type: functional, cell-based
[5] = molecular target: T1, Serine/threonine-protein kinase PLK1; test: Binding affinity to PLK1 in human PC-3 cells incubated for 2 hrs followed by heat shock for 10 mins by cellular thermal shift assay; type: cell-based
HRPE [6] = test: Antiproliferative activity against human RPE cells expressing wild type PLK1 assessed as reduction in cell viability upto 120 uM after 72 hrs by MTT assay; type: functional, cell-based
[7] = molecular target: T1, Serine/threonine-protein kinase PLK1; test: Inhibition of PLK1 in human PC-3 cells assessed as reduction in phosphorylation of TCTP at ser46 measured after 23 hrs in presence of colcemid by immunoblotting analysis; type: cell-based
[8] = molecular target: T1, Serine/threonine-protein kinase PLK1; test: Induction of PLK1 degradation in human PC-3 cells upto 60 uM measured after 23 hrs by Western blot analysis; type: cell-based; settings: dose microM <=60, time 23.0 hrs
PC-3 [9] = test: Induction of cell cycle arrest in human PC-3 cells at 60 uM incubated for 23 hrs in presence of colcemid by flow cytometry analysis; type: functional, cell-based
HRPE [10] = test: Antiproliferative activity against human RPE cells expressing C67V mutant PLK1 assessed as reduction in cell viability upto 120 uM after 72 hrs by MTT assay; type: functional, cell-based
[11] = molecular target: T1, Serine/threonine-protein kinase PLK1; test: Induction of PLK1 degradation in human DU-145 cells measured for 23 hrs by Western blot analysis; type: cell-based; settings: dose 10-45 µM
[12] = molecular target: T1, Serine/threonine-protein kinase PLK1; test: Induction of PLK1 degradation in human PC-3 cells measured for 23 hrs by Western blot analysis; type: cell-based
[13] = molecular target: T1, Serine/threonine-protein kinase PLK1; test: Inhibition of PLK1 in human PC-3 cells assessed as reduction in phosphorylation of TCTP at ser46 measured after 23 hrs by immunoblotting analysis; type: cell-based
[14] = molecular target: T1, Serine/threonine-protein kinase PLK1; test: Induction of PLK1 degradation in human PC-3 cells at 10 uM measured for 23 hrs by Western blot analysis relative to control; type: cell-based
[15] = molecular target: T1, Serine/threonine-protein kinase PLK1; test: Induction of PLK1 degradation in human PC-3 cells at 30 uM measured for 23 hrs by Western blot analysis relative to control; type: cell-based
[16] = molecular target: T1, Serine/threonine-protein kinase PLK1; test: Induction of PLK1 degradation in human PC-3 cells at 45 uM measured for 23 hrs by Western blot analysis relative to control; type: cell-based
[17] = molecular target: T1, Serine/threonine-protein kinase PLK1; test: Induction of PLK1 degradation in human PC-3 cells at 10 uM pretreated with proteosome inhibitor MG132 for 1 hr followed by compound addition and measured after 23 hrs by Western blot analysis relative to control; type: cell-based; design: scale not given: the % may be the effect or the level left
[18] = molecular target: T1, Serine/threonine-protein kinase PLK1; test: Induction of PLK1 degradation in human PC-3 cells at 30 uM pretreated with proteosome inhibitor MG132 for 1 hr followed by compound addition and measured after 23 hrs by Western blot analysis relative to control; type: cell-based; design: scale not given: the % may be the effect or the level left
[19] = molecular target: T1, Serine/threonine-protein kinase PLK1; test: Induction of PLK1 degradation in human PC-3 cells at 45 uM pretreated with proteosome inhibitor MG132 for 1 hr followed by compound addition and measured after 23 hrs by Western blot analysis relative to control; type: cell-based; design: scale not given: the % may be the effect or the level left
[20] = molecular target: T1, Serine/threonine-protein kinase PLK1; test: Induction of PLK1 degradation in human PC-3 cells measured after 23 hrs in presence of colcemid by Western blot analysis; type: cell-based; settings: dose 10-45 µM
PC-3 [21] = test: Induction of cell cycle arrest in human PC-3 cells at 10 to 45 uM incubated for 23 hrs by flow cytometry analysis; type: functional, cell-based; settings: dose 10-45 µM
PC-3 [22] = test: Induction of cell cycle arrest in human PC-3 cells assessed as reduction in G2/M phase at 45 uM incubated for 23 hrs in presence of colcemid by flow cytometry analysis (reference value: 67%); type: functional; design: scale not given: the % may be the effect or the level left

Row | pIC50 [1] | pIC50 (PC-3 [2]) | pIC50 (HeLa) | Structure (SMILES) | also measured
1 | 4.63 | 4.84 | 5.03 | CCCCCCCSc1ccc(C(=O)Nc2ccc(C)cc2C(=O)O)cc1 | Activity (HRPE [3]): Active; Activity (HRPE [4]): Active
2 | 4.62 | 4.64 | 4.81 | CCCCCCCCCCc1ccc(C(=O)Nc2ccc(C)cc2C(=O)O)cc1 | –
3 | 4.14 | 4.44 | – | CCCCCCCCNc1ccc(C(=O)Nc2ccc(C)cc2C(=O)O)cc1 | –
4 | 4.57 | 4.70 | – | CCCCCCCCNc1ccc(C(=O)Nc2cc(C)ccc2C(=O)O)cc1 | –
5 | 4.47 | 4.52 | 4.67 | CCCCCCCCCc1ccc(C(=O)Nc2ccc(C)cc2C(=O)O)cc1 | –
6 | 4.46 | 4.37 | 4.50 | CCCCCCCOc1ccc(C(=O)Nc2ccc(C)cc2C(=O)O)cc1 | –
7 | 4.55 | 4.59 | – | CCCCCCCCSc1ccc(C(=O)Nc2cc(C)ccc2C(=O)O)cc1 | –
8 | < 3.22 | < 3.92 | < 3.92 | CCCCCCCCCc1ccc(C(=O)Nc2cc(C)ccc2C(=O)OC)cc1 | Activity ([5]; time 130.0 min): inactive; Activity (HRPE [6]): inactive; inhibition [7]: inactive; Activity [8]: inactive; Activity (PC-3 [9]): inactive; Activity (HRPE [10]): inactive
9 | 4.54 | 4.56 | – | CCCCCCCSc1ccc(C(=O)Nc2ccccc2C(=O)O)cc1 | –
10 | < 3.22 | < 3.92 | < 3.92 | Cc1ccc(C(=O)O)c(NC(=O)c2ccc(N)cc2)c1 | –
11 | 4.55 | 4.74 | – | CCCCCCCCCc1ccc(C(=O)Nc2cc(C)ccc2C(=O)O)cc1 | –
12 | 4.06 | 4.38 | – | CCCCCCCNc1ccc(C(=O)Nc2ccccc2C(=O)O)cc1 | –
13 | 4.53 | – | 4.71 | CCCCCCCCOc1ccc(C(=O)Nc2cc(C)ccc2C(=O)O)cc1 | –
14 | 4.59 | 4.77 | – | CCCCCCCCCCCCc1ccc(C(=O)Nc2cc(C)ccc2C(=O)O)cc1 | –
15 | 4.57 | 4.82 | 4.92 | CCCCCCCCSc1ccc(C(=O)Nc2ccc(C)cc2C(=O)O)cc1 | Activity [11]: Dose-Dependent Effect; Activity [12]: Dose-Dependent Effect; pEC50 [5]: 6.19; inhibition [13]: Active; Activity [14]: 30%; Activity [15]: 5%; Activity [16]: 7%; Activity [17]: 64%; Activity [18]: 25%; Activity [19]: 16%; inhibition [7]: Active; Activity [20]: Dose-Dependent Effect; Activity (PC-3 [21]): inactive; Activity (PC-3 [22]): 20%
16 | 4.58 | 4.78 | 4.97 | CCCCCCCCCCCCc1ccc(C(=O)Nc2ccc(C)cc2C(=O)O)cc1 | Activity (HRPE [3]): Active; Activity (HRPE [4]): Active
17 | < 3.22 | – | – | CCCCCCCCCc1ccc(C(=O)Nc2ccc(C)cc2C(=O)OC)cc1 | –
18 | – | 4.85 | 4.98 | CCCCCCCCc1ccc(C(=O)Nc2ccc(C(F)(F)F)cc2C(=O)O)cc1 | –
19 | 4.54 | 4.66 | – | CCCCCCCCOc1ccc(C(=O)Nc2ccc(C)cc2C(=O)O)cc1 | –
20 | 4.38 | 4.50 | 4.73 | CCCCCCCNc1ccc(C(=O)Nc2ccc(C)cc2C(=O)O)cc1 | –
21 | 4.43 | 4.52 | – | CCCCCCCOc1ccc(C(=O)Nc2ccccc2C(=O)O)cc1 | –
